Source: the supplement of paper PMC5579334

Legend:
HS-Sch-2 [1] = assay: relative IC50 (inflection point of fitted dose-response curve, CellTiter-Glo viability, 72 h; top asymptote may be below 50% inhibition); higher = less potent
In short: (§1)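 After seeding 750–1000 cells per well of MPNST cell lines or primary human Schwann cells into 384-well plates preprinted with each compound at five concentrations in 10-fold steps, plates were kept 72 h at 37 °C, 5% CO2. Viability was read as CellTiter-Glo ATP luminescence relative to vehicle and positive-control wells, with duplicates averaged where present. The data were fitted with four-parameter logistic models. Drug sensitivity score and relative IC50, censored at the top concentration, derive from the fits, and percent inhibition refers to the top concentration.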

YST-1 [2] = assay: as above
In short: as §1

HS-PSS [3] = assay: relative IC50 (inflection point of fitted dose-response curve, CellTox-Green cytotoxicity, 72 h; top asymptote may be below 50%); higher = less potent
In short: (§2)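 For 72 h at 37 °C, MPNST cell lines and primary human Schwann cells were exposed in 384-well plates to five 10-fold compound dilutions. CellTox-Green, added before seeding at a final 1:1000 dilution, gave fluorescence from DNA released by disrupted cells. Signals were scaled to vehicle and positive-control wells, cultures failing plate quality control were left out, and four-parameter logistic fits were applied. Relative IC50 and drug sensitivity score were derived from the fits, with IC50 censored at the top concentration.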

HS-Sch-2 [4] = assay: % inhibition of CellTiter-Glo viability at highest tested concentration (72 h), relative to DMSO and benzethonium chloride controls; higher = more inhibition
In short: as §1

HS-PSS [5] = assay: as above
In short: as §1

YST-1 [6] = assay: as above
In short: as §1

HS-Sch-2 [7] = assay: drug sensitivity score (DSS, CellTiter-Glo viability, 72 h) (DSS (dimensionless)); higher = more sensitive; extreme values may be limits of the assay
In short: as §1

HS-PSS [8] = assay: as above
In short: as §1

YST-1 [9] = assay: as above
In short: as §1

HS-PSS [10] = assay: drug sensitivity score (DSS, CellTox-Green cytotoxicity, 72 h) (DSS (dimensionless)); higher = more cytotoxic; extreme values may be limits of the assay
In short: as §2

Compound	relative IC50 (HS-Sch-2 [1])	relative IC50 (YST-1 [2])	relative IC50 (HS-PSS [3])	other results
CCOc1ccn(-c2ccc(F)cc2)c(=O)c1C(=O)Nc1ccc(Oc2ccnc(N)c2Cl)c(F)c1	> 2500 nM	> 2500 nM	> 2500 nM	–
COc1ccc(Cn2ccc3ccc(C(=O)NO)cc32)cc1	3750 nM	1600 nM	> 10000 nM	–
Cc1ncc(Cl)cc1NCc1ccc(C(=O)N[C@@H](CC2CCCC2)C(=O)NC2CC2)s1	–	103 nM	> 5000 nM	–
Cn1cc(-c2ccc3nnc(C(F)(F)c4ccc5ncccc5c4)n3n2)cn1	–	–	> 10000 nM	–
O=C(NC[C@H](O)CN1CCc2ccccc2C1)c1cc(NC2COC2)ncn1	–	–	> 10000 nM	–
O=C(NOCC1CC1)c1ccc(F)c(F)c1Nc1ccc(I)cc1Cl	1630 nM	–	> 10000 nM	–
O=C(NOC[C@H](O)CO)c1ccc(F)c(F)c1Nc1ccc(I)cc1F	–	> 1000 nM	> 1000 nM	–
OCCn1cc(-c2cnc3nnn(Cc4ccc5ncccc5c4)c3n2)cn1	> 2500 nM	–	> 2500 nM	–
Cc1ccccc1C(C(=O)NC1CCCCC1)N(C(=O)Cn1ccnc1C)c1cccc(F)c1 (stereo not given) [AGI-5198]	–	> 10000 nM	> 10000 nM	–
O=C(Nc1cccc(C(F)(F)F)c1)Nc1cc(S(=O)(=O)NC2CC2)ccc1-c1ccsc1 [AGI-6780]	1400 nM	–	> 10000 nM	–
COc1ccc2c(OCc3nnc4ccc(-c5ccccc5)nn34)ccnc2c1 [AMG-208]	> 2500 nM	> 2500 nM	> 2500 nM	–
CC(C)[C@@H](CS(=O)(=O)C(C)C)N1C(=O)[C@@](C)(CC(=O)O)C[C@H](c2cccc(Cl)c2)[C@H]1c1ccc(Cl)cc1 [AMG-232]	> 1000 nM	190 nM	> 1000 nM	–
Cc1csc(-c2nnc(Nc3ccc(Oc4ncccc4-c4ccnc(N)n4)cc3)c3ccccc23)c1 [AMG-900]	326 nM	11 nM	> 1000 nM	–
COCC1(CO)C(=O)C2CCN1CC2 (stereo not given) [APR-246]	> 10000 nM	> 10000 nM	> 10000 nM	–
CC(C)Oc1cc(Nc2nc(N[C@@H](C)c3ccc(F)cn3)ncc2Cl)n[nH]1 [AZ-23]	–	162 nM	–	–
NC1(C(=O)N[C@@H](CCO)c2ccc(Cl)cc2)CCN(c2ncnc3[nH]ccc23)CC1 [AZD-5363]	3470 nM	2090 nM	> 10000 nM	–
CCN1CCN(Cc2ccc(Nc3ncc(F)c(-c4cc(F)c5nc(C)n(C(C)C)c5c4)n3)nc2)CC1 [Abemaciclib]	1010 nM	27.5 nM	> 2500 nM	–
Cn1ncc(Cl)c1-c1cc(C(=O)N[C@H](CN)Cc2cccc(F)c2)sc1Cl [Afuresertib]	> 1000 nM	327 nM	> 1000 nM	–
Cc1nc(NC(=O)N2CCC[C@H]2C(N)=O)sc1-c1ccnc(C(C)(C)C(F)(F)F)c1 [Alpelisib]	–	217 nM	> 2500 nM	–
N#CC1(c2ccc(NC(=O)c3cccnc3NCc3ccncc3)cc2)CCCC1 [Apatinib]	> 10000 nM	–	> 10000 nM	–
Nc1nc(Nc2ccc3c(c2)CC[C@@H](N2CCCC2)CC3)nn1-c1cc2c(nn1)-c1ccccc1CCC2 [BGB324]	570 nM	2140 nM	> 10000 nM	–
CC[C@H](NC(=O)[C@H](C)NC)C(=O)N1C[C@@H](O)C[C@H]1Cc1c(-c2[nH]c3cc(F)ccc3c2C[C@@H]2C[C@H](O)CN2C(=O)[C@H](CC)NC(=O)[C@H](C)NC)[nH]c2cc(F)ccc12 [Birinapant]	> 1000 nM	> 1000 nM	> 1000 nM	–
COC(=O)N[C@@H](C)CNc1nccc(-c2cn(C(C)C)nc2-c2cc(Cl)cc(NS(C)(=O)=O)c2F)n1 [Encorafenib]	–	> 1000 nM	> 1000 nM	–
O=C(Nc1nc2cccc(-c3ccc(CN4CCS(=O)(=O)CC4)cc3)n2n1)C1CC1 [Filgotinib]	2680 nM	3690 nM	> 10000 nM	–
CNc1nc(Nc2cn(C(C)(C)C#N)nc2C)ncc1C(F)(F)F [GNE-0877]	> 1000 nM	> 1000 nM	> 1000 nM	–
CN1CC[C@@H](NC(=O)Nc2ccc(C#N)cc2)C[C@@H]1c1nc2ccccc2[nH]1 [Glasdegib]	–	> 1000 nM	> 1000 nM	–

Compound	relative IC50 (HS-Sch-2 [1])	relative IC50 (YST-1 [2])	relative IC50 (HS-PSS [3])	other results
CN1CCN(C2CCN(C(=O)Nc3cc(Oc4ccc(NC(=O)C5(C(=O)Nc6ccc(F)cc6)CC5)c(F)c4)ccn3)CC2)CC1 [Golvatinib]	–	–	> 2500 nM	–
C#Cc1cccc(Nc2ncnc3cc4c(cc23)OCCOCCOCCO4)c1 [Icotinib]	–	–	> 10000 nM	–
CCCNC(=O)Nc1ccc(Oc2ncnc3cc(OC)c(OC)cc23)cc1Cl [KRN-633]	> 2500 nM	> 2500 nM	> 2500 nM	–
O=C(c1ccc(/C=C/c2n[nH]c3ccccc23)cc1)N1CCNCC1 [KW-2449]	> 2500 nM	509 nM	> 2500 nM	–
CNC(=O)c1cccc2cc(Oc3ccnc4cc(OCC5(N)CC5)c(OC)cc34)ccc12 [Lucitanib]	3710 nM	1420 nM	> 10000 nM	–
O=C(c1cccc(Cl)c1F)N1CCN(Cc2cccc(Nc3nccs3)n2)CC1 [MK-8745]	623 nM	231 nM	> 2500 nM	–
CN(C)C(=N)NC(=N)N [Metformin]	> 100000 nM	> 100000 nM	> 100000 nM	–
CCN1CCN(Cc2ccc(-c3cc4c(N[C@H](C)c5ccccc5)ncnc4[nH]3)cc2)CC1 [NVP-AEE788]	> 2500 nM	–	> 2500 nM	–
O=C(Nc1ccc(OC(F)(F)F)cc1)c1sccc1NCc1ccnc2ccccc12 [OSI-930]	–	> 2500 nM	> 2500 nM	–
Cc1[nH]c(/C=C2\C(=O)Nc3ccccc32)c(C)c1CCC(=O)O [Orantinib]	> 10000 nM	–	205 nM	–
O=C(Nc1cc(Cl)cc2c1[nH]c1cnccc12)c1cccnc1 [PS-1145]	> 25000 nM	–	> 25000 nM	–
COc1ccc(Cl)c(Nc2nc3ccccc3nc2NS(=O)(=O)c2cccc(NC(=O)C(C)(C)N)c2)c1 [Pilaralisib]	–	674 nM	> 2500 nM	–
c1cc(CN2CCCNCCNCCCNCC2)ccc1CN1CCCNCCNCCCNCC1 [Plerixafor]	> 10000 nM	> 10000 nM	> 10000 nM	–
Cc1cc(-c2ncc(-c3cccnc3)cc2/C=C/c2ccccc2)cnc1-c1cccnc1 [Pyridoclax]	–	672 nM	> 25000 nM	–
C=CC(=O)Nc1cccc(Nc2nc(Nc3ccc(OCCOC)cc3)ncc2F)c1 [Spebrutinib]	–	–	> 1000 nM	–
CCc1nc(-c2cccc(C)c2)c(-c2ccnc(NC(=O)c3ccccc3)c2)s1 [TAK-715]	1210 nM	–	> 10000 nM	–
COc1cc(C(=O)NC2CCN(C)CC2)c(F)cc1Nc1ncc2c(n1)N(C1CCCC1)CC(F)(F)C(=O)N2C [TAK-960]	–	> 2500 nM	> 2500 nM	–
Cc1cccc(-c2[nH]c(CNc3ccccc3F)nc2-c2ccc3ncnn3c2)n1 [TEW-7197]	–	> 2500 nM	> 2500 nM	–
Clc1ccccc1C(c1ccccc1)(c1ccccc1)n1cccn1 [TRAM-34]	–	> 1000 nM	> 1000 nM	–
COc1cccc2c1c(O)c(C(=O)N(C)c1ccc(C(F)(F)F)cc1)c(=O)n2C [Tasquinimod]	> 10000 nM	–	> 10000 nM	–
CCN(c1cc(-c2ccc(CN3CCOCC3)cc2)cc(C(=O)NCc2c(C)cc(C)[nH]c2=O)c1C)C1CCOCC1 [Tazemetostat]	–	> 10000 nM	> 10000 nM	–
O=c1ncn2nc(Sc3ccc(F)cc3F)ccc2c1-c1c(Cl)cccc1Cl [VX 745]	–	778 nM	> 10000 nM	–
O=C(Nc1ccc(-c2ccnc(Nc3ccc(N4CCOCC4)cc3)n2)cc1)[C@H]1CCCN1 [XL019] (max concentration tested 10000 nM)	–	–	–	% inhibition (HS-Sch-2 [4]): 22.7%; % inhibition (HS-PSS [5]): 32.7%; % inhibition (YST-1 [6]): 24.9%; drug sensitivity score (HS-Sch-2 [7]): 1.09; drug sensitivity score (HS-PSS [8]): 1.67; drug sensitivity score (YST-1 [9]): 1.13; drug sensitivity score (HS-PSS [10]): 0
COc1cc2c(Nc3ccc(Cl)c(Cl)c3F)ncnc2cc1OC[C@H]1C[C@@H]2CN(C)C[C@@H]2C1 [XL-647] (max concentration tested 1000 nM)	–	–	–	% inhibition (HS-Sch-2 [4]): 31.1%; % inhibition (HS-PSS [5]): 30.7%; % inhibition (YST-1 [6]): 26.5%; drug sensitivity score (HS-Sch-2 [7]): 1.16; drug sensitivity score (HS-PSS [8]): 0.99; drug sensitivity score (YST-1 [9]): 1.63; drug sensitivity score (HS-PSS [10]): 0
c1ccc(Cn2c(-c3ccc(OC[C@H](C4CCNCC4)n4c(-c5ccccc5)nc5ccccc54)cc3)nc3ccccc32)cc1 [deltarasin] (max concentration tested 10000 nM)	–	–	–	% inhibition (HS-Sch-2 [4]): 101%; % inhibition (HS-PSS [5]): 101%; % inhibition (YST-1 [6]): 100%; drug sensitivity score (HS-Sch-2 [7]): 5.77; drug sensitivity score (HS-PSS [8]): 6.88; drug sensitivity score (YST-1 [9]): 5.29; drug sensitivity score (HS-PSS [10]): 5.68
